Values quoted from earlier work as cited in patent US20040101539A1, “Aqueous dispersion of low-melting organic solids” (priority 2002, published 2004).

Settings: at 25° C.

water solubility: 2 ppm
Structure (SMILES): CCCCCCCCn1sc(Cl)c(Cl)c1=O [DCOIT, 4,5-dichloro-2-octyl-3(2H)-isothiazolone]
